Tests used:
Assay in all cases: Kinase profiling
Format in all cases: biochemical
SGK1 = molecular target: T1, SGK1 (Homo sapiens, UniProt O00141); settings: Conc 1000 nM; read-out: Percent inhibition, SGK1
T1 construct: purchased Ambit (KINOMEscan)
From the text: (§1) ; Fig. 5a; Supplementary Table 1). We focused on Dyrk1a because other kinases inhibited by aminopyrazine compounds were not highly expressed in β-cells and because Dyrk1a was known to inhibit the NFAT pathway that was previously implicated in β-cell proliferation. We used molecular modelling to dock the aminopyrazine compounds into the published structure of Dyrk1a (protein databank accession code 2vx3.pdb; Fig. 5b).

Flt-3 = molecular target: T2, Flt-3 (Homo sapiens, UniProt P36888); settings: read-out: Percent inhibition, Flt-3; for inhibition at 1 µM: Conc 1000 nM
T2 construct: purchased Ambit KINOMEscan
T2 sequence (P36888 27-993): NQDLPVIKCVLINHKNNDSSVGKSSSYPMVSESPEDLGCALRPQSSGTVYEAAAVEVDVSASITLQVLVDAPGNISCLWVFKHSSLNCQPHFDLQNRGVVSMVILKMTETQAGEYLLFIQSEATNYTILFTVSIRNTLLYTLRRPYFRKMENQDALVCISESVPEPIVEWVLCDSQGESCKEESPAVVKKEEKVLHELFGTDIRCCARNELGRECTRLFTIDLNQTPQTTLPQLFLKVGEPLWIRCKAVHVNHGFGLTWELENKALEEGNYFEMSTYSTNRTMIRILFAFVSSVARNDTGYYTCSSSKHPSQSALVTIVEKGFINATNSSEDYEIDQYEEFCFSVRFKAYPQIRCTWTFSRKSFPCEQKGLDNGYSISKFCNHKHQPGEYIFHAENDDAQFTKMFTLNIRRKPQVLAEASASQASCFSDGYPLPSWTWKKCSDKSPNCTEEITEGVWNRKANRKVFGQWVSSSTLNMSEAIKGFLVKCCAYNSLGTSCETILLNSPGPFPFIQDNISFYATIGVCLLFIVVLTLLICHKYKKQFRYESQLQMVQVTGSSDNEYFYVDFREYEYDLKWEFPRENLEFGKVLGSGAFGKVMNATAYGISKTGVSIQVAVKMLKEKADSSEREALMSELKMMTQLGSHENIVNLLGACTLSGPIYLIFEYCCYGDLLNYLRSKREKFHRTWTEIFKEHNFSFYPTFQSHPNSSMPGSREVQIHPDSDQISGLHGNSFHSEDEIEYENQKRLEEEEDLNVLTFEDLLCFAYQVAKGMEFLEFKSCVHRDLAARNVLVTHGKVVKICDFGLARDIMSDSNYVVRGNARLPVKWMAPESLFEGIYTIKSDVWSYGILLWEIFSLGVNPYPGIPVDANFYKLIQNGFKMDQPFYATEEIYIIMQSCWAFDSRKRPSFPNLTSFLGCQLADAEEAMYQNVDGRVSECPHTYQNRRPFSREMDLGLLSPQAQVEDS
From the text: as §1

PI3Ka = molecular target: T3, PI3Ka (Homo sapiens, UniProt P42336); settings: Conc 1000 nM; read-out: Percent inhibition, PI3Ka
T3 construct: purchased Ambit (KINOMEscan)
From the text: as §1

BMX = molecular target: T4, BMX (Homo sapiens, UniProt P51813); settings: Conc 1000 nM; read-out: Percent inhibition, BMX
T4 construct: purchased Ambit KINOMEscan
T4 sequence (P51813 whole entry): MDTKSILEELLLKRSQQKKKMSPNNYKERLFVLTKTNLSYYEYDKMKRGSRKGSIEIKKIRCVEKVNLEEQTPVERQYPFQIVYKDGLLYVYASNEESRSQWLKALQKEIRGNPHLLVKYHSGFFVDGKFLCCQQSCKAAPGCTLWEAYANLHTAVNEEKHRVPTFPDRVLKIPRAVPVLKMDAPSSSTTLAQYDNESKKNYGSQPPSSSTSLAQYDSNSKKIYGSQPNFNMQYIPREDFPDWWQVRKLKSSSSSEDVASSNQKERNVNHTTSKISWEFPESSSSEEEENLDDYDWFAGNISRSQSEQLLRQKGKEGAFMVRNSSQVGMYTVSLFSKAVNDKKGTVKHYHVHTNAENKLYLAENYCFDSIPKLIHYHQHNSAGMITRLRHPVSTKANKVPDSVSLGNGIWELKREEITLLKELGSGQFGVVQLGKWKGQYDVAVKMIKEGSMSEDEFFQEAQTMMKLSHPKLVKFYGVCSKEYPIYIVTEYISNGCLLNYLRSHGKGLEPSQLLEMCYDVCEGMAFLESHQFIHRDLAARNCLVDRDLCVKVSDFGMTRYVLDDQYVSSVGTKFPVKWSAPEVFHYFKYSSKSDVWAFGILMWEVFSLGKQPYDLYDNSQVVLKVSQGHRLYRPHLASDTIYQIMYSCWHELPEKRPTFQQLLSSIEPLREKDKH
From the text: as §1

Abl = molecular target: T5, Abl (Homo sapiens, UniProt P00519); settings: Conc 1000 nM; read-out: Percent inhibition, Abl
T5 construct: purchased Ambit KINOMEscan
T5 sequence (P00519 whole entry): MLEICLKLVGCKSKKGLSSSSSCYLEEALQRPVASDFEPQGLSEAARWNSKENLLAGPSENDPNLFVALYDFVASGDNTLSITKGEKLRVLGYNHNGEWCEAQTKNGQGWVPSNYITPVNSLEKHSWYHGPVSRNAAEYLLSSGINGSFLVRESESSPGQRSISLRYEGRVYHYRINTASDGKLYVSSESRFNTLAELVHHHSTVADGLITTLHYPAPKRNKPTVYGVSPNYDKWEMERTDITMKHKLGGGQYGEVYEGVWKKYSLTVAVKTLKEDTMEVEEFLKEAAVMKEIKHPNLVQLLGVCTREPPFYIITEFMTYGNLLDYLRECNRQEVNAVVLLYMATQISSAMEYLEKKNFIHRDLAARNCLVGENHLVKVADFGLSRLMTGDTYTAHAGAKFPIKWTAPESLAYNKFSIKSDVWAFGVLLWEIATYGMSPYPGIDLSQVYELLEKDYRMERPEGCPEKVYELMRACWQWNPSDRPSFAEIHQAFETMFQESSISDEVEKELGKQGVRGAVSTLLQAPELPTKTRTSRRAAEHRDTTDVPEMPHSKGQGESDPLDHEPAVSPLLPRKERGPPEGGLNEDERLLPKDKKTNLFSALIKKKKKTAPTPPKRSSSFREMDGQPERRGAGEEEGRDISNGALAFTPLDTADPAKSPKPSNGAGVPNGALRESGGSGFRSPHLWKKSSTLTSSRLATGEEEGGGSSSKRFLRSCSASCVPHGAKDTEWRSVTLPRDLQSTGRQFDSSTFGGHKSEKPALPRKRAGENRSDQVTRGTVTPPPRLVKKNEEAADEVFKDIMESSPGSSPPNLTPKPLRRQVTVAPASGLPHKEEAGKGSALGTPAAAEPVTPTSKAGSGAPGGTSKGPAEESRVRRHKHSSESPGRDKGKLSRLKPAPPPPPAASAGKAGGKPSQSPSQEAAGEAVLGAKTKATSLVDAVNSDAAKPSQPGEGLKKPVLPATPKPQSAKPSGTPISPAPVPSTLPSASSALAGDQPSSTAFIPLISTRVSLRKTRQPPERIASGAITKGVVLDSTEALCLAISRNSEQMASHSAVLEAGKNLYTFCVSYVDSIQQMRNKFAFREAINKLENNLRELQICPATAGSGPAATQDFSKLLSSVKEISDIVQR
From the text: as §1

MAPK1 (ERK2) = molecular target: T6, MAPK1 (ERK2) (Homo sapiens, UniProt P28482); settings: Conc 1000 nM; read-out: Percent inhibition, MAPK1 (ERK2)
T6 construct: purchased Ambit (KINOMEscan)
T6 sequence (P28482 whole entry): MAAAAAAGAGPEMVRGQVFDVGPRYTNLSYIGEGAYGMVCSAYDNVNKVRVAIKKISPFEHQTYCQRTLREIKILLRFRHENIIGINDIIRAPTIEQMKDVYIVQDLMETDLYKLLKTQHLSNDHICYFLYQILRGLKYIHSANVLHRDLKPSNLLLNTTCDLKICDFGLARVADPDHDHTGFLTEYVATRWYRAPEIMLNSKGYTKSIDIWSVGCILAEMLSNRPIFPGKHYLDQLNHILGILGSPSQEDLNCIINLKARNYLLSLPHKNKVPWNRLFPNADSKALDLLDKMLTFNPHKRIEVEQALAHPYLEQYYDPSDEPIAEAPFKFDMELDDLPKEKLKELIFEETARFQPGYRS
From the text: as §1

ZAP70 = molecular target: T7, ZAP70 (Homo sapiens, UniProt P43403); settings: read-out: Percent inhibition, ZAP70; for inhibition at 1 µM: Conc 1000 nM
T7 construct: purchased Ambit (KINOMEscan)
T7 sequence (P43403 1-619): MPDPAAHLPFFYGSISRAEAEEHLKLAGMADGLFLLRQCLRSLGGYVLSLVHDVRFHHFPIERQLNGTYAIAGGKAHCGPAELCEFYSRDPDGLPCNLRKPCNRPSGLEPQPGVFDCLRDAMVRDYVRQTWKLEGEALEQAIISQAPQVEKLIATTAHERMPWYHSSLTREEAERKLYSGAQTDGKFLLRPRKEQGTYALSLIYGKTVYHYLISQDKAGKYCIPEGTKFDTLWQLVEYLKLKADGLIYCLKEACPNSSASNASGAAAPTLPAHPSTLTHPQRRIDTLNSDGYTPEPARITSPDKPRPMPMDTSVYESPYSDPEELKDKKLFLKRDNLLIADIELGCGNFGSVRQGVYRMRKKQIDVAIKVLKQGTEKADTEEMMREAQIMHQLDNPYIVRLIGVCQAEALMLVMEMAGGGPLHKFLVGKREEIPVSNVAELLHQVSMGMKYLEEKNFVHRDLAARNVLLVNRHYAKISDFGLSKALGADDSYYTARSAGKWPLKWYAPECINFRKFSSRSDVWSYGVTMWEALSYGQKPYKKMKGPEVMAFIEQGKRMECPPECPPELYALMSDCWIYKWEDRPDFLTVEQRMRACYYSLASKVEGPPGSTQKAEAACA
From the text: as §1

JNK2 = molecular target: T8, JNK2 (Homo sapiens, UniProt P45984); settings: Conc 1000 nM; read-out: Percent inhibition, JNK2
T8 construct: purchased Ambit KINOMEscan
From the text: as §1

p38alpha (MAPK14) = molecular target: T9, p38alpha (MAPK14) (Homo sapiens, UniProt Q16539); settings: Conc 1000 nM; read-out: Percent inhibition, p38alpha (MAPK14)
T9 construct: purchased Ambit (KINOMEscan)
T9 sequence (Q16539 whole entry): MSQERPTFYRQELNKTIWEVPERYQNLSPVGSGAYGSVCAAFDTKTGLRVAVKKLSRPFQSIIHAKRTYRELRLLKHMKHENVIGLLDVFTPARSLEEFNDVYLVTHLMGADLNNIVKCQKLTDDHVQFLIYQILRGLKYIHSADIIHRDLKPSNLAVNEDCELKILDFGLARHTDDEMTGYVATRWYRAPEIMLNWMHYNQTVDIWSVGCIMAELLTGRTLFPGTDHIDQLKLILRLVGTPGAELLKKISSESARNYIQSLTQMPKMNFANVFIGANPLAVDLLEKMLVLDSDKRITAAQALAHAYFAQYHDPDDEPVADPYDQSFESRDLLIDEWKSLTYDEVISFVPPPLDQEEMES
From the text: as §1

JAK2 = molecular target: T10, JAK2 (Homo sapiens, UniProt O60674); settings: read-out: Percent inhibition, JAK2; for inhibition at 1 µM: Conc 1000 nM
T10 construct: purchased Ambit KINOMEscan
T10 sequence (O60674 whole entry): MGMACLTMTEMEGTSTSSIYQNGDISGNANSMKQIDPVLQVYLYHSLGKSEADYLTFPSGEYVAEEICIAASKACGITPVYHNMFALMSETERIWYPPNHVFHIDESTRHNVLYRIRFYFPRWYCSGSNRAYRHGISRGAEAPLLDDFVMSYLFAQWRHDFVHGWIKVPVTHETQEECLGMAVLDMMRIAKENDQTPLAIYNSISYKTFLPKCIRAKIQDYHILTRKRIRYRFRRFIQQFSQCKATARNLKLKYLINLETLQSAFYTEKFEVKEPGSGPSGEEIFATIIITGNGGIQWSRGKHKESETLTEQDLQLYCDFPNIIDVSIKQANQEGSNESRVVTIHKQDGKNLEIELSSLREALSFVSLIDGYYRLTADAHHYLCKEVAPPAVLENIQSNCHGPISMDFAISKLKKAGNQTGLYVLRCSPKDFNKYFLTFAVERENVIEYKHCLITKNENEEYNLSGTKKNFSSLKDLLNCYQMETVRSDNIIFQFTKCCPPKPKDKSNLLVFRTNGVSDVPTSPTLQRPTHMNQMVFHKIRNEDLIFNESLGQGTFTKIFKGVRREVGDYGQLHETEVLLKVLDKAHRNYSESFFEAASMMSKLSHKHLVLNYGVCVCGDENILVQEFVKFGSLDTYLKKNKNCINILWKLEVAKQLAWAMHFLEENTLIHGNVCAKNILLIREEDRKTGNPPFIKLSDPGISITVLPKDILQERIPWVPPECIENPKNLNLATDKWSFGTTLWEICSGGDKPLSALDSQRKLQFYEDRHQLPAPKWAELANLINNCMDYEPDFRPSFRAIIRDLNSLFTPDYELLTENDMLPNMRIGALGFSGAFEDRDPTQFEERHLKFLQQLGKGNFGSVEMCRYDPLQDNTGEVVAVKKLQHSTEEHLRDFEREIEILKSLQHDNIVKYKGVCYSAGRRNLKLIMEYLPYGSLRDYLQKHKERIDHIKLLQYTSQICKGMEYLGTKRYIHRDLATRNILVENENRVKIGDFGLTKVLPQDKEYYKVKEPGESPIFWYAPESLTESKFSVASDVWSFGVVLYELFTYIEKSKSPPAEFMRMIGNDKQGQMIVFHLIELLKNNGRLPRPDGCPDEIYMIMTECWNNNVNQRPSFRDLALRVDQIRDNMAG
From the text: as §1

IRAK4 = molecular target: T11, IRAK4 (Homo sapiens, UniProt Q9NWZ3); settings: Conc 1000 nM; read-out: Percent inhibition, IRAK4
T11 construct: purchased Ambit KINOMEscan
T11 sequence (Q9NWZ3 whole entry): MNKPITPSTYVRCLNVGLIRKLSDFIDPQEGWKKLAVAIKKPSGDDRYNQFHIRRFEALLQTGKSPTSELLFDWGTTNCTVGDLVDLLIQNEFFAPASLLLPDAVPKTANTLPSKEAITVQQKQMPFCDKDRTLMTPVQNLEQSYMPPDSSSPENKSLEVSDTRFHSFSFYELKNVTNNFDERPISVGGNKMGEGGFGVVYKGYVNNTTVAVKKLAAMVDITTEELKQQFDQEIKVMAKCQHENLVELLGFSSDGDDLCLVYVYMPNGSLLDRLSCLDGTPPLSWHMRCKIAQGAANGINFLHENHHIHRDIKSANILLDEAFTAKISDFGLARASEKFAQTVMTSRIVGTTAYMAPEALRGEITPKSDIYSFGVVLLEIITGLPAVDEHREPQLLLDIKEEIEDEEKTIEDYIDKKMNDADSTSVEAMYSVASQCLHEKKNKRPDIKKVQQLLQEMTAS
From the text: as §1

AURORA-B = molecular target: T12, AURORA-B (Homo sapiens, UniProt Q96GD4); settings: Conc 1000 nM; read-out: Percent inhibition, AURORA-B
T12 construct: purchased Ambit KINOMEscan
T12 sequence (Q96GD4 whole entry): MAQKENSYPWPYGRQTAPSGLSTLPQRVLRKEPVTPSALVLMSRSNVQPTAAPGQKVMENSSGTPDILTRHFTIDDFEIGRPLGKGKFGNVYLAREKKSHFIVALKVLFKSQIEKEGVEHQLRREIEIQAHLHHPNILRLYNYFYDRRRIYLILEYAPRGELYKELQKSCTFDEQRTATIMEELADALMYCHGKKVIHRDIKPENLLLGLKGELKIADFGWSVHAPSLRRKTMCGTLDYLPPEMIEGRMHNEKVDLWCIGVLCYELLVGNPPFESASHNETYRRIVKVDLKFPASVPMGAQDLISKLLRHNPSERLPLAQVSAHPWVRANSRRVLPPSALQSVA
From the text: as §1

BTK = molecular target: T13, BTK (Homo sapiens, UniProt Q06187); settings: Conc 1000 nM; read-out: Percent inhibition, BTK
T13 construct: purchased Ambit KINOMEscan
From the text: as §1

CHEK1 = molecular target: T14, CHEK1 (Homo sapiens, UniProt O14757); settings: Conc 1000 nM; read-out: Percent inhibition, CHEK1
T14 construct: purchased Ambit KINOMEscan
From the text: as §1

PDK1 = molecular target: T15, PDK1 (Homo sapiens, UniProt O15530); settings: Conc 1000 nM; read-out: Percent inhibition, PDK1
T15 construct: purchased Ambit (KINOMEscan)
T15 sequence (O15530 whole entry): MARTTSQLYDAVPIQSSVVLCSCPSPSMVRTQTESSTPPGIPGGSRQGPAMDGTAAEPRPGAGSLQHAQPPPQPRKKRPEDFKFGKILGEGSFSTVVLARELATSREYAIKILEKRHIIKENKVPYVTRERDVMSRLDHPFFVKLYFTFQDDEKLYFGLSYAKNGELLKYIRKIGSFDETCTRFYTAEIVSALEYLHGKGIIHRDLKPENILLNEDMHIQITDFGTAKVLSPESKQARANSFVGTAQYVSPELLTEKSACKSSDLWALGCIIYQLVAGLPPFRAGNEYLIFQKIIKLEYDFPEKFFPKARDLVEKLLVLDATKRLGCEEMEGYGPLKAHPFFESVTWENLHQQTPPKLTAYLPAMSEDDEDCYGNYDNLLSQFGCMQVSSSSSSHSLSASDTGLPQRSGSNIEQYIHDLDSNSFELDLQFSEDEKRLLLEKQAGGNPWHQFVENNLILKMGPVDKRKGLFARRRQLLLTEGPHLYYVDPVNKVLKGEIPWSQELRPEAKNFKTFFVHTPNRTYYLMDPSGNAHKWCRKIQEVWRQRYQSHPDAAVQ
From the text: as §1

Row | Structure (SMILES) | inhibition at 1 µM (SGK1) [%] | inhibition at 0.2 µM (Flt-3; Conc 200 nM) [%] | inhibition at 1 µM (Flt-3) [%] | inhibition at 1 µM (PI3Ka) [%] | inhibition at 1 µM (BMX) [%] | inhibition at 1 µM (Abl) [%] | inhibition at 1 µM (MAPK1 (ERK2)) [%] | inhibition at 0.2 µM (ZAP70; Conc 200 nM) [%] | inhibition at 1 µM (ZAP70) [%] | inhibition at 1 µM (JNK2) [%] | inhibition at 1 µM (p38alpha (MAPK14)) [%] | inhibition at 0.2 µM (JAK2; Conc 200 nM) [%] | inhibition at 1 µM (JAK2) [%] | inhibition at 1 µM (IRAK4) [%] | inhibition at 1 µM (AURORA-B) [%] | inhibition at 1 µM (BTK) [%] | inhibition at 1 µM (CHEK1) [%] | inhibition at 1 µM (PDK1) [%]
1 | CC(C)Oc1ccc(F)c(-c2cnc(N)c(C(=O)Nc3cnccc3N3CCC[C@@H](C(=O)O)C3)n2)c1 [GNF4877] | 67 | 36 | 86 | 31 | 43 | 66 | 7 | 0 | 94 | 51 | 6 | 2 | 95 | 52 | 49 | 42 | 43 | 45
2 | Nc1ncc(-c2ccccc2)nc1C(=O)Nc1cnccc1N1CCC(C(=O)O)CC1 [GNF7156] | 39 | – | 64 | 2 | 88 | 90 | 6 | – | 70 | 68 | 9 | – | 92 | 25 | 52 | 83 | 12 | 43

Reference: publication PMC4639830, “Inhibition of DYRK1A and GSK3B induces human β-cell proliferation” (Nature Communications, 2015)
